In patent US12187709B2 (Genentech, Inc., priority 2021, dated 2025):

Legend:
c-Cbl (residues 47-435) = c-Cbl (residues 47-435) (Homo sapiens (Human), UniProt P22681); assay: c-Cbl SPR assay; format: binding; details: 20° C.
Procedure, shortened: (§1)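 Captured protein (1300-1500 RU for both isoforms) was probed in multi-cycle kinetics with 6 concentrations in 2-fold dilution, 60 s contact, 40 μl/min, dissociation 120-1200 s, double-referenced. Kinetic and affinity parameters came from a 1:1 binding fit. For slow off-rates, kd was set independently by a chaser-based method.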

Cbl-b = Cbl-b (Homo sapiens (Human), UniProt Q13191); assay: Cbl-b LCK Ub TR-FRET assay (Cbl-b Lck HTRF); format: biochemical; details: for IC50: Cbl-b LCK Ub TR-FRET; for (fold-selectivity) Cbl-b and C-Cbl Selectivity / fold-selectivity (Cbl-b over C-cbl): ratio C-cbl Lck HTRF IC50 / Cbl-b Lck HTRF IC50
Procedure, shortened: (§2)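 Signal is read once the detection mix has stood 20 min at ambient temperature. Curves are anchored by DMSO as maximum and by omission of LCK as minimum.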

c-Cbl = c-Cbl (Homo sapiens (Human), UniProt P22681); assay: C-Cbl LCK Ub TR-FRET assay (C-cbl Lck HTRF); format: biochemical
Procedure, shortened: as §2

[1] = biological target: Human Cbl-b (residues 40-426) (Homo sapiens (Human), UniProt Q13191); assay: Cbl-b SPR assay; format: binding; details: for Fold of selectivity: C-cbl SPR Kd vs Cbl-b SPR Kd; for Kd: SPR, 20° C.
Procedure, shortened: as §1

Sequence of Human Cbl-b (residues 40-426) (Q13191 40-426): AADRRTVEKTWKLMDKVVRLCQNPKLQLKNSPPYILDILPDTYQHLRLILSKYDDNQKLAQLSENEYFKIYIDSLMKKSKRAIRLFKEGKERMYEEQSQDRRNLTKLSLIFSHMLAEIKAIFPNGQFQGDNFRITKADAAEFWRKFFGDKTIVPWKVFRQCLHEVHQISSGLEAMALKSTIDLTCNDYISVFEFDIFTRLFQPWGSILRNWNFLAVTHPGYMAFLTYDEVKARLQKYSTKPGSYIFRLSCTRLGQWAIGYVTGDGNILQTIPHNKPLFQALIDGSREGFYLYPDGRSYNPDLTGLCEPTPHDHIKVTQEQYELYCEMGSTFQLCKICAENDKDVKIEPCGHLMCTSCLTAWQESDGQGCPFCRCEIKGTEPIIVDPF
Sequence of Cbl-b (Q13191 40-426): as above
Sequence of c-Cbl (residues 47-435) (P22681 47-435): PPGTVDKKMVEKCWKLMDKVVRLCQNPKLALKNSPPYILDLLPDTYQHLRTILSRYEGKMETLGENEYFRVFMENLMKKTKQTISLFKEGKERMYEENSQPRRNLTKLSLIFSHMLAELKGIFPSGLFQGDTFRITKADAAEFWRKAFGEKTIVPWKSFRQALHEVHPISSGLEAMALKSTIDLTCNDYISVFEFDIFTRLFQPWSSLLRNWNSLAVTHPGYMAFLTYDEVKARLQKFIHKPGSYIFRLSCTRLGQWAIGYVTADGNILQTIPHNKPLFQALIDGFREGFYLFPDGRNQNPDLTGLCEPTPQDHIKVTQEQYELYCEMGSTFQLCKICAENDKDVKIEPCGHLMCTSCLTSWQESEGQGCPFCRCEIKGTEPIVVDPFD
Sequence of c-Cbl (P22681 47-435): as above

Row | Structure (SMILES) | Kd (c-Cbl (residues 47-435)) [nM] | IC50 (Cbl-b; Example 121) [nM] | (fold-selectivity) Cbl-b and C-Cbl Selectivity (Cbl-b) [x] | IC50 (c-Cbl) [nM] | Fold of selectivity [1] [×] | Kd [1] [nM] | IC50 (Cbl-b) [nM] | fold-selectivity (Cbl-b over C-cbl) (Cbl-b) [x]
1 | CO[C@H]1C[C@](c2cccc(N3Cc4c(cc(CN[C@@]56CCC[C@@H]5C6)cc4C(F)(F)F)C3=O)c2)(c2nncn2C)C1 [Compound 508, 6-(((1R,5R)-bicyclo[3.1.0]hexan-1-ylamino)methyl)-2-(3-((1r,3R)-3-methoxy-1-(4-methyl-4H-1,2,4-triazol-3-yl)cyclobutyl)phenyl)-4-(trifluoromethyl)isoindolin-1-one] | 24 | 6.2 | 3.8 | 24 | 14 | 1.7 |  | 
2 | CO[C@H]1C[C@](c2cccc(N3Cc4c(cc(CNCC5(C)CC5)cc4C(F)(F)F)C3=O)c2)(c2nncn2C)C1 [Compound 474, 2-(3-((1r,3r)-3-methoxy-1-(4-methyl-4H-1,2,4-triazol-3-yl)cyclobutyl)phenyl)-6-((((1-methylcyclopropyl)methyl)amino)methyl)-4-(trifluoromethyl)isoindolin-1-one] | 68 | 11 | 4.8 | 51 | 14 | 4.8 |  | 
3 | CO[C@H]1C[C@](c2cccc(N3Cc4c(cc(CNCC5(CF)CC5)cc4C(F)(F)F)C3=O)c2)(c2nncn2C)C1 [Compound 496, 6-((((1-(fluoromethyl)cyclopropyl)methyl)amino)meth-yl)-2-(3-((1r,3r)-3-methoxy-1-(4-methyl-4H-1,2,4-triazol-3-yl)cyclobutyl)phenyl)-4-(trifluoromethyl)isoindolin-1-one] | 73 | 17 | 5.2 | 87 | 12 | 6.1 |  | 
4 | Cn1cnnc1[C@H](c1cccc(N2Cc3c(cc(CNC4(C)CCC4)cc3C(F)(F)F)C2=O)c1)[C@H]1C[C@@H](C)C1 (single isomer, unassigned) [Compound 377] | 2600 |  |  | 2500 | 11 | 240 | 240 | 11
5 | C[C@H](NC1(C)CCC1)c1cc(Cl)c2c(c1)C(=O)N(c1cccc([C@]3(c4nncn4C)C[C@H](F)C3)c1)C2 (single isomer, unassigned) [Compound 312] | 28 |  |  | 27 | 14 | 2 | 7.8 | 3.5
6 | Cn1nnnc1[C@@H](c1cccc(N2Cc3c(cc(CNC4(C)CCC4)cc3C(F)(F)F)C2=O)c1)C1COC1 (single isomer, unassigned) [Compound 348] | 630 |  |  | 500 | 8.4 | 75 | 140 | 3.5
7 | Cn1cnnc1C1(c2cccc(N3Cc4c(cc(C(CF)NC5(C)CCC5)cc4C(F)(F)F)C3=O)c2)CCC1 (centres unmarked) [Compound 453, 6-(2-fluoro-1-((1-methylcyclobutyl)amino)ethyl)-2-(3-(1-(4-methyl-4H-1,2,4-triazol-3-yl)cyclobutyl)phenyl)-4-(trifluoromethyl)isoindolin-1-one] | 4.8 | 6.6 | 1.7 | 11 | 2.8 | 1.7 |  | 
8 | Cn1cnnc1[C@@H](C[C@H]1CCOC1)c1cccc(N2Cc3c(cc(CNC4(C)CCC4)cc3C(F)(F)F)C2=O)c1 [Compound 277, 2-(3-((S)-1-(4-methyl-4H-1,2,4-triazol-3-yl)-2-((S)-tetrahydrofuran-3-yl)ethyl)phenyl)-6-(((1-methylcyclobutyl)amino)methyl)-4-(trifluoromethyl)isoindolin-1-one] | 7700 |  |  | 8600 | 5.3 | 1400 | 3600 | 2.3
9 | Cl.Cn1cnnc1[C@]1(c2cccc(N3Cc4c(cc(CNC5(C)CCC5)cc4C(F)(F)F)C3=O)c2)C[C@@H](Cl)C1 [Compound 137, 2-(3-((1r,3r)-3-chloro-1-(4-methyl-4H-1,2,4-triazol-3-yl)cyclobutyl)phenyl)-6-(((1-methylcyclobutyl)amino)methyl)-4-(trifluoromethyl)isoindolin-1-one hydrochloride] | 2.1 |  |  | 8.5 | 8.4 | 0.27 | 6.1 | 1.4
10 | C[C@H](NC1(C)CCC1)c1cc2c(c(C(F)(F)F)c1)CN(c1cccc([C@H](c3nncn3C)C3COC3)c1)C2=O [Compound 445, 2-(3-((R)-(4-methyl-4H-1,2,4-triazol-3-yl)(oxetan-3-yl)methyl)phenyl)-6-((S)-1-((1-methylcyclobutyl)amino)ethyl)-4-(trifluoromethyl)isoindolin-1-one] | 23 | 9.7 | 3.1 | 30 | 4.7 | 4.8 |  | 
11 | Cn1cnnc1C1(c2cccc(N3Cc4c(cc(CNC5(C)CCC5)cc4C(F)(F)F)C3=O)c2)CCCCC1 [Compound 298, 2-(3-(1-(4-methyl-4H-1,2,4-triazol-3-yl)cyclohexyl)phenyl)-6-(((1-methylcyclobutyl)amino)methyl)-4-(trifluoromethyl)isoindolin-1-one] | 2600 |  |  | 1500 | 5.9 | 480 | 660 | 2.3
12 | Cn1cnnc1[C@@H](c1cccc(N2Cc3c(cc([C@@H](NC4(C)CCC4)C4CCC4)cc3C(F)(F)F)C2=O)c1)C1COC1 (single isomer, unassigned) [Compound 433] | 86 | 17 | 4.7 | 78 | 10 | 8.5 |  | 
13 | Cn1cnnc1[C@@H](c1cccc(N2Cc3c(cc(CNC4(C)CCC4)cc3C(F)(F)F)C2=O)c1)C1CC(OCC(F)F)C1 (stereo partly drawn) [Compound 260, 2-(3-((R)-((1r,3R)-3-(2,2-difluoroethoxy)cyclobutyl)(4-methyl-4H-1,2,4-triazol-3-yl)methyl)phenyl)-6-(((1-methylcyclobutyl)amino)methyl)-4-(trifluoromethyl)isoindolin-1-one] | 2200 |  |  | 2400 | 8.8 | 590 | 450 | 5.4
14 | CO[C@H]1C[C@@](c2cc(OC3COC3)cc(N3Cc4c(cc(CNC5(C)CCC5)cc4C(F)(F)F)C3=O)c2)(c2nncn2C)C1 [Compound 241, 2-(3-((1s,3s)-3-methoxy-1-(4-methyl-4H-1,2,4-triazol-3-yl)cyclobutyl)-5-(oxetan-3-yloxy)phenyl)-6-(((1-methylcyclobutyl)amino)methyl)-4-(trifluoromethyl)isoindolin-1-one] | 270 |  |  | 530 | 8.6 | 34 | 130 | 4.0
15 | Cn1cnnc1[C@H](C[C@@H]1COCCO1)c1cccc(N2Cc3c(cc(CNC4(C)CCC4)cc3C(F)(F)F)C2=O)c1 [Compound 297, 2-(3-((R)-2-((R)-1,4-dioxan-2-yl)-1-(4-methyl-4H-1,2,4-triazol-3-yl)ethyl)phenyl)-6-(((1-methylcyclobutyl)amino)methyl)-4-(trifluoromethyl)isoindolin-1-one] | 5800 |  |  | 2300 | 2.0 | 2800 | 1300 | 1.8
16 | CCNc1cc(N2Cc3c(cc(CNC4(C)CCC4)cc3C(F)(F)F)C2=O)cc([C@]2(c3nncn3C)C[C@H](C)C2)c1 [Compound 90, 2-(3-(ethylamino)-5-((1r,3r)-3-methyl-1-(4-methyl-4H-1,2,4-triazol-3-yl)cyclobutyl)phenyl)-6-(((1-methylcyclobutyl)amino)methyl)-4-(trifluoromethyl)isoindolin-1-one] | 0.4 |  |  | 6.6 | 2.0 | 0.2 | 7.8 | 0.83
17 | Cn1cnnc1[C@H](c1cccc(N2Cc3c(cc(CNC4(C)CCC4)cc3C(F)(F)F)C2=O)c1)[C@H]1C[C@H](C#N)C1 (single isomer, unassigned) [Compound 142] | 1300 |  |  | 350 | 3.8 | 370 | 200 | 1.8
18 | Cn1cnnc1[C@H](c1cccc(N2Cc3c(cc(CNC4(C)CCC4)cc3C(F)(F)F)C2=O)c1)[C@H]1C[C@H](C)C1 (single isomer, unassigned) [Compound 376, 2-(3-((S)-(4-methyl-4H-1,2,4-triazol-3-yl)((1r,3S)-3-methylcyclobutyl)methyl)phenyl)-6-(((1-methylcyclobutyl)amino)methyl)-4-(trifluoromethyl)isoindolin-1-one] | 790 |  |  | 490 | 16 | 46 |  | 9.0
